Assay results: PMC5818740, “Lock and chop: A novel method for the generation of a PICK1 PDZ domain and piperidine‐based inhibitor co‐crystal structure” (Protein Science : A Publication of the Protein Society, 2018)

Molecular target: PICK1 (protein interacting with kinase C1), PDZ domain (Homo sapiens, UniProt Q9NRD5)
Experiment: biochemical

Chain of PICK1 (protein interacting with kinase C1), PDZ domain (Q9NRD5 1-357 limits assumed): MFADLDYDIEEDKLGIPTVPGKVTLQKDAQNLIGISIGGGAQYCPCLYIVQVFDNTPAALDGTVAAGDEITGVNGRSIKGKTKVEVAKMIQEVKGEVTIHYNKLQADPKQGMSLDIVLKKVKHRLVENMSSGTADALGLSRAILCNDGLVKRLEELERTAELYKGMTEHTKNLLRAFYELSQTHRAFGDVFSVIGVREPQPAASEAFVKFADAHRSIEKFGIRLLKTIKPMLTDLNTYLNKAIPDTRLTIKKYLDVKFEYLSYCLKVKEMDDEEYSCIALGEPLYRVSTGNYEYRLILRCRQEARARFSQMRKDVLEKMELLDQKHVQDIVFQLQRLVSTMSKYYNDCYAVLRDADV

For `CC(C)(C)OC(=O)N1CCC[C@H]1C(=O)N1CCC(C(=O)N[C@H](C(=O)O)C2CCCC2)(c2ccc(Br)cc2)CC1` [BIO124], the IC50 was 513 nM.
